Assay results from patent publication US20230218707A1, “NOVEL PEPTIDE INHIBITORS OF BETA-LACTAMASE AGAINST ANTIBIOTIC RESISTANCE” (priority 2020, published 2023).
Residues, ends and D or L forms follow the SMILES beside them.

Columns and labels:
TEM-1 = TEM-1 (Escherichia coli, UniProt P62593); conditions: literature peptide, Huang et al. 2003; cited from earlier work
PBP2a = molecular target: T1, PBP2a (Staphylococcus aureus, UniProt P07944); test: In vitro binding assay, Bocillin FL binding to PBP2a (SDS-PAGE fluorescence); conditions: preliminary data, FIG. 3A
T1 construct: purchased RayBiotech, GA
T1 sequence (P07944 whole entry): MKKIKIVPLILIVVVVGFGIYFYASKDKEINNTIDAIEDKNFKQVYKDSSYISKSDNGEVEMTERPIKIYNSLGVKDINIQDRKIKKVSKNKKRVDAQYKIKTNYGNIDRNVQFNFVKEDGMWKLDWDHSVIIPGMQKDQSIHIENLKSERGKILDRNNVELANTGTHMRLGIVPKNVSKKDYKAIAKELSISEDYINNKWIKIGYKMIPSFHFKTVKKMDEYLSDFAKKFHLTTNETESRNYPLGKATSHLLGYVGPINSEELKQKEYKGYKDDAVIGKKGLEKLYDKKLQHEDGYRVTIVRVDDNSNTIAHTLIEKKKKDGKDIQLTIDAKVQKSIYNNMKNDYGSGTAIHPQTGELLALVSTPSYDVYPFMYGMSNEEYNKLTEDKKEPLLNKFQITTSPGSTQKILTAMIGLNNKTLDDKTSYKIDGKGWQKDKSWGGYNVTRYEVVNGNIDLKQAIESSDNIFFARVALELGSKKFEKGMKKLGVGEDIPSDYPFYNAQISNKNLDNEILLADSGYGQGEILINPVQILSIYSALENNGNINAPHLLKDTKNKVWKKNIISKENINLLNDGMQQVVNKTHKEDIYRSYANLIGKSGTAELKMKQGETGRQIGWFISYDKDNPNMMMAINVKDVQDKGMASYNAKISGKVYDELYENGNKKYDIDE
Excerpt: More peptides were designed to target both PBP2a and β-lactamase which are predicted to enhance amoxicillin killing of MRSA. […] The top 6 best-scored peptides were synthesized. […] In the absence of peptide competitors, Bocillin FL bound to PBP2a and then gave rise to fluorescence signal when the protein was resolved on an SDS-PAGE gel.

ATCC35218 cells = test: Confocal microscopy of uptake of fluorescent labeled peptide; assay type: cell-based, E. coli; conditions: 5(6)-FAM label at N-terminus
Method: To confirm that the CPP enhanced the E. coli uptake of the peptide, the BP100-T61-25 peptide was labeled with 5(6)-FAM [5-(and-6)-Carboxyfluorescein at the N-terminus and incubated with ATCC35218 cells. […] It is noted that significant enhancement of amoxicillin potency against resistant bacteria can be achieved by linking CPPs to peptide inhibitor.

MRSA strain (JE2) = test: Growth of MRSA strain JE2 with peptide and ceftizoxime; assay type: cell-based, Staphylococcus aureus; conditions: JE2, 8 μg/ml ceftizoxime (FIG. 4)
Method: Some of the MRSA strains also developed resistance against cephalosporin, which are improved β-lactams developed to overcome some of the early penicillin resistance. BP100-T61-25's synergy with Ceftizoxime, which is a third generation cephalosporin on a MRSA strain (JE2) that is resistant to cephalosporin, was tested.

MRSA strain NRS384 = test: Growth of MRSA strain NRS384 with peptide and amoxicillin; assay type: cell-based, Staphylococcus aureus
Method: In order to assess the potency of the peptides against MRSA, the peptides were tested on MRSA strain NRS384, which is widely used for studying MRSA infections.

NRS384 = test: Serial passage resistance selection of NRS384; assay type: cell-based, Staphylococcus aureus
[1] = test system: Escherichia coli ATCC 35218; assay type: cell-based; conditions: for enhancement of amoxicillin killing of ATCC35218: 32 μg/ml amoxicillin, FIG. 1 / FIG. 2A
Method: The activity of peptide inhibitors was assessed in Escherichia coli ATCC 35218 strain, which is a TEM-1 producing control E. coli strain commonly used in testing β-lactamase inhibitor activity, and which is resistant to amoxicillin by expressing TEM-1 β-lactamase. Peptide inhibitors that can inhibit TEM-1 function will lower minimum inhibitory concentration (MIC) of the amoxicillin against the resistant bacteria, which will be used to measure the potency of peptide inhibitors in bacteria. Bacterial susceptibility to amoxicillin and β-lactamase inhibitors were determined by broth microtiter dilution (BMD) according to the Clinical and Laboratory Standards Institute (CLSI) methodology. The tests were done using checkboard method with different amoxicillin concentrations (0-128 μg/ml). For the control group, clavulanic acid concentration was about 4 μg/ml.

TEM-1, sequence (P62593 24-286 limits assumed): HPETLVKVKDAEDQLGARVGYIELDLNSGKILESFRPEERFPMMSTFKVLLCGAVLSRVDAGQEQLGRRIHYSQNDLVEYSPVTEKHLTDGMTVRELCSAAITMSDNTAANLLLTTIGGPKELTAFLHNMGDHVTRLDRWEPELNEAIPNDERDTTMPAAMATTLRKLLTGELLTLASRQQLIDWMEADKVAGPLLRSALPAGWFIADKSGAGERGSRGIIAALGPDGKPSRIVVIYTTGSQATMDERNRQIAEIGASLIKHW

RRGHYY-NH2
Ki (TEM-1): 136 µM

CC(C)C[C@H](NC(=O)[C@H](C)NC(=O)[C@H](CCCNC(=N)N)NC(=O)[C@@H](NC(=O)[C@@H](NC(=O)[C@H](Cc1ccccc1)NC(=O)[C@@H](NC(=O)[C@@H](N)CCCCN)[C@@H](C)O)C(C)C)C(C)C)C(=O)N[C@@H](C)C(=O)N[C@@H](CO)C(=O)O [Peptide T63-07]
inhibition of Bocillin FL binding to PBP2a (PBP2a): inhibitory effect

CC[C@H](C)[C@H](NC(=O)[C@H](CCCCN)NC(=O)[C@H](CCCCN)NC(=O)[C@H](Cc1ccccc1)NC(=O)[C@H](CC(C)C)NC(=O)[C@H](CCCCN)NC(=O)[C@@H](N)CCCCN)C(=O)N[C@@H](CC(C)C)C(=O)N[C@@H](CCCCN)C(=O)N[C@@H](Cc1ccc(O)cc1)C(=O)N[C@@H](CC(C)C)C(=O)N[C@@H](CCCCN)C(=O)N[C@H](C(=O)N[C@@H](Cc1ccc(O)cc1)C(=O)N[C@@H](CC(C)C)C(=O)N[C@@H](C)C(=O)N[C@@H](CCC(N)=O)C(=O)N[C@@H](C)C(=O)N[C@@H](C)C(=O)N[C@@H](C)C(=O)N[C@H](C(=O)NCC(=O)O)[C@@H](C)O)[C@@H](C)O [BP100-T61-25] (H-KKLFKKILKYLKTYLAQAAATG-OH; N-terminus and C-terminus assumed)
peptide internalization into E. coli cells (ATCC35218 cells): peptide internalization into E. coli cells was observed | peptide concentration significantly enhancing ceftizoxime's killing of JE2 (MRSA strain (JE2)): 8 µg/mL | peptide concentration enhancing amoxicillin killing of MRSA (MRSA strain NRS384; NRS384, amoxicillin 32 μg/ml, FIG. 3C): 16 µg/mL | peptide concentration sufficient to inhibit bacterial growth after serial passage (NRS384; NRS384 passages 12-15, with 32 μg/ml amoxicillin): 16 µg/mL | enhancement of amoxicillin killing of ATCC35218 [1]: Marked enhancement of amoxicillin (32 μg/ml) killing of bacteria | peptide dose close to the MIC ([1]; ATCC 35218): ~8 µg/mL | peptide concentration with strong inhibition of bacterial growth ([1]; ATCC35218, with 32 μg/ml amoxicillin): 8 to 16 µg/mL | peptide concentration significantly inhibiting bacterial growth ([1]; ATCC35218, without amoxicillin): 16 µg/mL

CC1(C)S[C@@H]2[C@H](NC(=O)[C@H](N)c3ccc(O)cc3)C(=O)N2[C@H]1C(=O)O [amoxicillin, reference compound]
MIC (MRSA strain NRS384; Staphylococcus aureus): > 256 µg/mL

CFFKDELKTYLAQAAATG [Peptide T63-2, cell wall-permeating peptide attached to peptide T61-25]
enhancement of amoxicillin killing of ATCC35218 [1]: moderate effect at enhancing amoxicillin potency

CC(C)C[C@H](NC(=O)[C@H](Cc1ccc(O)cc1)NC(=O)[C@@H](NC(=O)[C@@H](N)CCCCN)[C@@H](C)O)C(=O)N[C@@H](C)C(=O)N[C@@H](CCC(N)=O)C(=O)N[C@@H](C)C(=O)N[C@@H](C)C(=O)N[C@@H](C)C(=O)N[C@H](C(=O)NCC(=O)O)[C@@H](C)O [Peptide T61-25]
inhibition of Bocillin FL binding to PBP2a (PBP2a): inhibitory effect

KTFVVRALASCKFFKFFKFF [Peptide T63-07-CPP, T63-07 conjugated with CPP]
peptide concentration significantly enhancing amoxicillin inhibition of MRSA growth (MRSA strain NRS384; NRS384, amoxicillin 32 and 64 μg/ml, FIG. 3B): 32 µg/mL

KFFKFFKFFKKTYLAQAAATG [Peptide T63-1, cell wall-permeating peptide attached to peptide T61-25]
enhancement of amoxicillin killing of ATCC35218 [1]: Significant enhancement of amoxicillin killing of bacteria | enhancement of amoxicillin potency compared with clavulanate ([1]; ATCC35218, FIG. 1): enhanced amoxicillin potency significantly more than clavulanate

C[C@H](NC(=O)[C@H](Cc1ccccc1)NC(=O)[C@H](CC(=O)O)NC(=O)CNC(=O)[C@H](CO)NC(=O)CNC(=O)CN)C(=O)N[C@@H](CCCNC(=N)N)C(=O)N[C@@H](CO)C(=O)N[C@@H](CO)C(=O)N[C@@H](Cc1ccc(O)cc1)C(=O)O [Peptide T66-12]
inhibition of Bocillin FL binding to PBP2a (PBP2a): inhibitory effect

O=C(O)c1cn(C2CC2)c2cc(N3CCNCC3)c(F)cc2c1=O [ciprofloxacin, reference compound]
MIC (NRS384; Staphylococcus aureus, NRS384, read-out: bacterial MIC to ciprofloxacin after serial passage): > 256 µg/mL
